Assay results reported in the Deep4Chem optical property database.
One block for each compound: values may come before it.

Experiment: solvent given as SMILES

- absorption maximum (in CC#N): 465 nm
Compound: C[n+]1cc2ccc3c[n+](C)c4ccccc4c3c2c2ccccc21

Compound: CCn1c2ccccc2c2cc(-c3cc(-c4ccc5c(c4)c4ccccc4n5CC)nc(C#N)n3)ccc21
- absorption maximum (in C1CCOC1): 381 nm
- absorption maximum (in CCOC(C)=O): 378 nm
- absorption maximum (in CN(C)C=O): 387 nm
- absorption maximum (in Cc1ccccc1): 380 nm
- absorption maximum (in ClCCl): 381 nm

- absorption maximum (in ClCCl): 477 nm
Compound: CCCCN1C(=O)C2=C(c3ccc(Br)cc3)NC(=O)C2=C1c1ccc(Br)cc1

- absorption maximum (in CN(C)C=O): 310 nm
Compound: Cc1nc2cccc(-c3nc4ccccc4o3)c2c(=O)[nH]1

- absorption maximum (in CS(C)=O): 463 nm
- absorption maximum (in ClCCl): 458 nm
Compound: CCN(CC)c1ccc2c(c1)oc(=O)c1c(=O)oc3c(C)c4oc(=O)c5c(=O)oc6cc(N(CC)CC)ccc6c5c4cc3c12

- absorption maximum (in ClC(Cl)Cl): 335 nm
Compound: N#Cc1c(C#N)c2cc(F)ccc2c2ccc(F)cc12

- absorption maximum (in ClC(Cl)Cl): 429 nm
Compound: CCCCCCCCCc1csc2cc(-c3cc(-c4cc5scc(CCCCCCCCC)c5s4)c4ccc5c(-c6cc7scc(CCCCCCCCC)c7s6)cc(-c6cc7scc(CCCCCCCCC)c7s6)c6ccc3c4c65)sc12

- absorption maximum (in ClC(Cl)Cl): 329.71 nm
Compound: CC(C)(C)c1ccc(-c2cc3c4c(c2)CCc2cc(-c5ccc(C(C)(C)C)cc5)cc(c2-4)CC3)cc1

- absorption maximum (in CO): 768 nm
Compound: CC1(C)C(/C=C/C2=C(Oc3ccc(CCN=C=S)cc3Cl)C(=C/C=C3/N(CCCS(=O)(=O)[O-])c4ccccc4C3(C)C)/CCC2)=[N+](CCCS(=O)(=O)[O-])c2ccccc21

- absorption maximum (in C1CCCCC1): 489 nm
- absorption maximum (in CC#N): 504 nm
- absorption maximum (in CCO): 506 nm
Compound: COc1cc(OC)c2c(c1)C(=O)c1cc(OC)cc(OC)c1-2

- absorption maximum (in CC#N): 456 nm
Compound: COc1ccc(-c2nc3ccccc3nc2/C=C/N2CCCC2)s1

- absorption maximum (in ClCCl): 373 nm
Compound: CC(C)(C)c1ccc2c(c1)c1cc(C(C)(C)C)ccc1n2-c1ccc(N(c2ccc(-c3ccc4c(c3)C(C)(C)c3cc(-c5ccc(N(c6ccc(-n7c8ccc(C(C)(C)C)cc8c8cc(C(C)(C)C)ccc87)cc6)c6ccc(-n7c8ccc(C(C)(C)C)cc8c8cc(C(C)(C)C)ccc87)cc6)cc5)ccc3-4)cc2)c2ccc(-n3c4ccc(C(C)(C)C)cc4c4cc(C(C)(C)C)ccc43)cc2)cc1

- absorption maximum (in CCO): 439 nm
Compound: CC(C)(C)OC(=O)NCC(=O)OCc1ccc2c3cccc4cccc(c5cccc1c52)c43

Compound: N#Cc1cc(-c2ccc(N3c4ccccc4Oc4ccccc43)cc2)c(-c2ccc(N3c4ccccc4Oc4ccccc43)cc2)cc1C#N
- absorption maximum (in Cc1ccccc1): 406 nm

- absorption maximum (in C1CCCCC1): 316.6 nm
- absorption maximum (in CC#N): 311.6 nm
- absorption maximum (in CC(C)O): 313.8 nm
- absorption maximum (in CCCCCC): 314.8 nm
- absorption maximum (in CCCCCCCCCCCCCCCC): 317.3 nm
- absorption maximum (in CCCCCCCCCCCCCCCCCl): 317.2 nm
- absorption maximum (in CO): 311.8 nm
Compound: COC(=O)c1ccc(C#Cc2ccccc2)cc1

Compound: COc1ccc(C2=[N+]3C(=Nc4c(-c5cc(OC)c(OC)c(OC)c5)c(-c5ccc(C(C)(C)C)cc5)c(-c5ccc(OC)cc5)n4[B-]3(F)F)C(c3cc(OC)c(OC)c(OC)c3)=C2c2ccc(C(C)(C)C)cc2)cc1
- absorption maximum (in Cc1ccccc1): 694 nm

Compound: c1ccc(-c2nn(-c3ccccc3)c3nc4ccc(-n5c6ccccc6c6ccccc65)cc4cc23)cc1
- absorption maximum (in C1CCCCC1): 419.11 nm
- absorption maximum (in C1CCOC1): 414.94 nm
- absorption maximum (in CC#N): 411.02 nm
- absorption maximum (in CC(C)=O): 412.03 nm
- absorption maximum (in CCCCCl): 415.97 nm
- absorption maximum (in CCCCOCCCC): 418.06 nm
- absorption maximum (in CN(C)C=O): 414.94 nm

Compound: O=Cc1ccc2nc(C#Cc3ccc(N(c4ccc(C#Cc5nc6ccc(C=O)cc6s5)cc4)c4ccc(C#Cc5nc6ccc(C=O)cc6s5)cc4)cc3)sc2c1
- absorption maximum (in Cc1ccccc1): 421 nm

Compound: CCCCCCC(CCCCCC)N1C(=O)c2cccc3c(-c4ccc(C#N)cc4)ccc(c23)C1=O
- absorption maximum (in CCCCCC): 355.6 nm
- absorption maximum (in CCCCCCCCCCCCCC): 356.2 nm
- absorption maximum (in CCCCCCCCCCCO): 365.8 nm
- absorption maximum (in CCCCO): 367.8 nm
- absorption maximum (in CN(C)C=O): 367.8 nm
- absorption maximum (in Cc1ccccc1): 364.6 nm
- absorption maximum (in ClC(Cl)Cl): 366.4 nm

- absorption maximum (in ClCCl): 369 nm
Compound: Brc1ccc(/C=C/c2cnc3ccccc3n2)cc1

Compound: CN(C)c1cccc2c1ccc1c(=O)oc(-c3ccc(C(F)(F)F)cc3)cc12
- absorption maximum (in CC(C)=O): 392 nm
- absorption maximum (in CCCCCCCCO): 395 nm
- absorption maximum (in CCCCO): 394 nm
- absorption maximum (in CCCO): 393 nm
- absorption maximum (in CCO): 393 nm
- absorption maximum (in CCOC(C)=O): 393 nm
- absorption maximum (in CN(C)C=O): 395 nm
- absorption maximum (in CO): 391 nm
- absorption maximum (in ClC(Cl)Cl): 395 nm

- absorption maximum (in CCO): 391 nm
- absorption maximum (in ClCCl): 394 nm
Compound: N#Cc1cnc(-c2c3ccccc3c(-c3ncc(C#N)cn3)c3ccccc23)nc1

- absorption maximum (in CC#N): 410 nm
- absorption maximum (in CCCCCCC): 393 nm
- absorption maximum (in CO): 413 nm
- absorption maximum (in O): 418 nm
Compound: O=[N+]([O-])c1ccc(/C=C/c2c[nH]c3ccccc23)cc1

Compound: O=C(Cc1ccccc1)OCc1ccc2c3cccc4cccc(c5cccc1c52)c43
- absorption maximum (in CCO): 438 nm

- absorption maximum (in CO): 467 nm
- absorption maximum (in O): 468 nm
- absorption maximum (in OCCO): 476 nm
- absorption maximum (in [2H]O[2H]): 468 nm
Compound: O=C(O)C1=CC(=C/C=[N+]2/c3cc(O)c(C[C@@H]4O[C@H](CO)[C@@H](O)C(O)[C@H]4O)cc3C[C@H]2C(=O)O)C=C(C(=O)O)N1 (stereo not given in full)

- absorption maximum (in C1CCOC1): 308 nm
Compound: Cc1ccc(-c2ccc(-c3ccc(-c4ccc(-c5ccc(C)cc5)cc4)c(/C(=C(/c4ccccc4)c4cc(-c5ccc(-c6ccc(C)cc6)cc5)ccc4-c4ccc(-c5ccc(C)cc5)cc4)c4ccccc4)c3)cc2)cc1

Compound: CC1(C)c2ccccc2N(c2ccc3c(c2)Oc2ccccc2P3(=O)c2ccccc2)c2ccccc21 (stereo not given)
- absorption maximum (in Cc1ccccc1): 348 nm

Compound: c1ccc2c(c1)CC1(C2)c2cc(N3c4ccccc4Sc4ccccc43)ccc2-c2ccc(N3c4ccccc4Sc4ccccc43)cc21
- absorption maximum (in Cc1ccccc1): 310 nm

- absorption maximum (in ClCCl): 327 nm
Compound: C(=C\c1nc(/C=C/c2ccccc2)nc(/C=C/c2ccccc2)n1)/c1ccccc1

Compound: CCn1c2ccccc2c2cc(-c3cc(-c4ccc5c(c4)c4ccccc4n5CC)ncn3)ccc21
- absorption maximum (in C1CCOC1): 360 nm
- absorption maximum (in CCOC(C)=O): 359 nm
- absorption maximum (in CN(C)C=O): 363 nm
- absorption maximum (in Cc1ccccc1): 360 nm
- absorption maximum (in ClCCl): 360 nm

Compound: CCn1c2ccccc2c2cc(-c3cc(-c4ccc5c(c4)c4ccccc4n5CC)nc(-c4ccc(OC)cc4)n3)ccc21
- absorption maximum (in C1CCOC1): 365 nm
- absorption maximum (in CCOC(C)=O): 362 nm
- absorption maximum (in CN(C)C=O): 369 nm
- absorption maximum (in Cc1ccccc1): 363 nm
- absorption maximum (in ClCCl): 364 nm

- absorption maximum (in CC#N): 352 nm
- absorption maximum (in ClCCl): 365 nm
Compound: Cc1cc(O)c(C(=O)/C=C/c2ccccc2[N+](=O)[O-])c(=O)o1

- absorption maximum (in CC#N): 348 nm
- absorption maximum (in CCCCCC): 342 nm
Compound: Nc1ccc(/C=C/c2ccc3ccccc3c2)cc1

Compound: c1cc2ccc3ccc4cc3c2cc1c1ccc2ccc3ccc(cc3c2c1)c1ccc2c(c1)c1cc4ccc1[C@]13OCCO[C@]21OCCO3
- absorption maximum (in Cc1ccccc1): 366 nm

- absorption maximum (in C1CCOC1): 362 nm
Compound: CCC1(CC)c2cc(C#Cc3cccs3)ccc2-c2c1c1c(c3c2C(CC)(CC)c2cc(C#Cc4cccs4)ccc2-3)C(CC)(CC)c2cc(C#Cc3cccs3)ccc2-1

- absorption maximum (in ClCCl): 391 nm
Compound: c1ccc(N2N=C(c3cccc4ccccc34)CC2c2ccc3ccc4cccc5ccc2c3c45)cc1 (stereo not given)

- absorption maximum (in C1CCCCC1): 586 nm
- absorption maximum (in CCOC(C)=O): 581 nm
- absorption maximum (in CO): 579 nm
Compound: F[B-]1(F)n2c(cc3c4ccccc4oc32)C(c2ccccc2)=C2C=c3c(oc4ccccc34)=[N+]21

- absorption maximum (in ClCCl): 370 nm
Compound: CCOC(=O)/N=c1/oc2cc(OC)ccc2cc1C#N
